Laboratory results taken from US10988524B2, “Modified relaxin B chain peptides and their therapeutic use” (priority 2018, dated 2021).
Non-standard residues stand in square brackets, D forms with d. Residues, ends and D or L forms follow the SMILES beside them. 1Nal = N[C@@H](Cc1cccc2ccccc12)C(=O)O; Nle = CCCC[C@H](N)C(=O)O; Aib = CC(C)(N)C(=O)O

Target: T1, RXFP1 (Homo sapiens, UniProt Q9HBX9)
T1 sequence (Q9HBX9 1-757): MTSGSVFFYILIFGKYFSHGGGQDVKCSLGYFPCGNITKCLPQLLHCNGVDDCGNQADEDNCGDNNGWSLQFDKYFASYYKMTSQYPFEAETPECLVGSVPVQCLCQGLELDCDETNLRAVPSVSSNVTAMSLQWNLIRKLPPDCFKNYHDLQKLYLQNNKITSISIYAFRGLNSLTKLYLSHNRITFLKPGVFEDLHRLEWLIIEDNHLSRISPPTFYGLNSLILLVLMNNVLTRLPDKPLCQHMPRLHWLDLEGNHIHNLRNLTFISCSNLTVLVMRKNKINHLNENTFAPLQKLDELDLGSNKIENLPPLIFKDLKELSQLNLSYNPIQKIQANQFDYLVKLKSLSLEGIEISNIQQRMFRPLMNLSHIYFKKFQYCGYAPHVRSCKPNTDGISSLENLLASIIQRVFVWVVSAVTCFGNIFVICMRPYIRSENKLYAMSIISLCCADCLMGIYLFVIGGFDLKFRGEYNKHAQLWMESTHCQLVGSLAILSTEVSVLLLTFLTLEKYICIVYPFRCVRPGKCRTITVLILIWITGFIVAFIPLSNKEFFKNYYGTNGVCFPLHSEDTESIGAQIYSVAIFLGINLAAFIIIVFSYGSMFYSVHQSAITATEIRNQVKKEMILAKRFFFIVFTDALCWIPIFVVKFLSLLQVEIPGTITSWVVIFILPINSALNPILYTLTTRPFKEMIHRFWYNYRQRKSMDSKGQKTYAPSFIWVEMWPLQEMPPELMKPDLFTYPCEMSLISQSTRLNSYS
Assay: OVCAR5 cAMP assay (RXFP1 agonist activity, HTRF)
Conditions: for Emax: OVCAR-5, read-out: cAMP assay in OVCAR 5 cells Emax, maximal intracellular cAMP relative to H2-relaxin in the same test occasion; for EC50: cAMP assay in OVCAR 5 cells EC50 (nM), OVCAR5 cells expressing endogenous RXFP1, cAMP by HTRF, 30 min at 37° C., 1 mM IBMX

Structure (SMILES) | Emax [%] | EC50 [nM]
CC[C@H](C)[C@H](NC(=O)[C@H](CCC(N)=O)NC(=O)[C@H](C)NC(=O)[C@H](CCCNC(=N)N)NC(=O)[C@@H](NC(=O)[C@H](CCCCN)NC(=O)[C@H](CCC(=O)O)NC(=O)[C@H](CCCNC(=N)N)NC(=O)CNC(=O)[C@H](CCC(=O)O)NC(=O)[C@@H](N)CC(C)C)C(C)C)C(=O)NC(C)(C)C(=O)N[C@H](C(=O)N[C@@H](CCC(=O)O)C(=O)NCC(=O)N[C@@H](CCSC)C(=O)N[C@@H](CO)C(=O)N[C@@H](CCCCN)C(=O)N[C@@H](Cc1c[nH]c2ccccc12)C(=O)N[C@@H](CO)C(=O)N[C@@H](CCCCN)C(=O)N[C@@H](CCCNC(=N)N)C(=O)N[C@@H](CCCCN)C(=O)N[C@@H](CCCCN)C(N)=O)[C@@H](C)CC [compound 6] (H-LEGREKVRAQI[Aib]IEGMSKWSKRKK-NH2) | 97 | –
CC[C@H](C)[C@H](NC(=O)[C@H](CCC(N)=O)NC(=O)C(C)(C)NC(=O)[C@H](CCCNC(=N)N)NC(=O)[C@@H](NC(=O)[C@H](CCCCN)NC(=O)[C@H](CCC(=O)O)NC(=O)[C@H](CCCNC(=N)N)NC(=O)CNC(=O)[C@H](CCC(=O)O)NC(=O)[C@H](CC(C)C)NC(C)=O)C(C)C)C(=O)NC(C)(C)C(=O)N[C@H](C(=O)N[C@@H](CCC(=O)O)C(=O)NCC(=O)N[C@@H](CCSC)C(=O)N[C@@H](CO)C(=O)N[C@@H](CCCCN)C(=O)N[C@@H](Cc1c[nH]c2ccccc12)C(=O)N[C@@H](CO)C(=O)N[C@@H](CCCCN)C(=O)N[C@@H](CCCNC(=N)N)C(=O)N[C@@H](CCCCN)C(=O)N[C@@H](CCCCN)C(N)=O)[C@@H](C)CC [compound 7] (Ac-LEGREKVR[Aib]QI[Aib]IEGMSKWSKRKK-NH2) | 101 | –
CCCC[C@H](NC(=O)CNC(=O)[C@H](CCC(=O)O)NC(=O)[C@@H](NC(=O)C(C)(C)NC(=O)[C@@H](NC(=O)[C@H](CCC(N)=O)NC(=O)[C@H](C)NC(=O)[C@H](CCCNC(=N)N)NC(=O)[C@@H](NC(=O)[C@H](CCCCN)NC(=O)[C@H](CCC(=O)O)NC(=O)[C@H](CCCNC(=N)N)NC(=O)CNC(=O)[C@H](CCC(=O)O)NC(=O)[C@H](CC(C)C)NC(C)=O)C(C)C)[C@@H](C)CC)[C@@H](C)CC)C(=O)N[C@@H](CO)C(=O)N[C@@H](CCCCN)C(=O)N[C@@H](Cc1c[nH]c2ccccc12)C(=O)N[C@@H](CO)C(=O)N[C@@H](CCCCN)C(=O)N[C@@H](CCCNC(=N)N)C(=O)N[C@@H](CCCCN)C(=O)N[C@@H](CCCCN)C(N)=O [compound 8] (Ac-LEGREKVRAQI[Aib]IEG[Nle]SKWSKRKK-NH2) | 103 | –
CC[C@H](C)[C@H](NC(=O)[C@H](CCC(N)=O)NC(=O)[C@H](C)NC(=O)[C@H](CCCNC(=N)N)NC(=O)[C@@H](NC(=O)[C@H](CCCCN)NC(=O)[C@H](CCC(=O)O)NC(=O)[C@H](CCCNC(=N)N)NC(=O)CNC(=O)[C@H](CCC(=O)O)NC(=O)[C@H](CC(C)C)NC(C)=O)C(C)C)C(=O)NC(C)(C)C(=O)N[C@H](C(=O)N[C@@H](CCC(=O)O)C(=O)NCC(=O)N[C@@H](CCSC)C(=O)N[C@@H](CO)C(=O)N[C@@H](CCCCN)C(=O)N[C@@H](Cc1cccc2ccccc12)C(=O)N[C@@H](CO)C(=O)N[C@@H](CCCCN)C(=O)N[C@@H](CCCNC(=N)N)C(=O)N[C@@H](CCCCN)C(=O)N[C@@H](CCCCN)C(N)=O)[C@@H](C)CC [compound 9] (Ac-LEGREKVRAQI[Aib]IEGMSK[1Nal]SKRKK-NH2) | 100 | –
CC[C@H](C)[C@H](NC(=O)[C@H](CCC(N)=O)NC(=O)[C@H](C)NC(=O)[C@H](CCCNC(=N)N)NC(=O)[C@@H](NC(=O)[C@H](CCCCN)NC(=O)[C@H](CCC(=O)O)NC(=O)[C@H](CCCNC(=N)N)NC(=O)CNC(=O)[C@H](CCC(=O)O)NC(=O)[C@H](CC(C)C)NC(C)=O)C(C)C)C(=O)NC(C)(C)C(=O)NC(C)(C)C(=O)N[C@@H](CCC(=O)O)C(=O)NCC(=O)N[C@@H](CCSC)C(=O)N[C@@H](CO)C(=O)N[C@H](C(=O)N[C@@H](Cc1c[nH]c2ccccc12)C(=O)N[C@@H](CO)C(=O)N[C@@H](CCCCN)C(=O)N[C@@H](CCCNC(=N)N)C(=O)N[C@@H](CCCCN)C(=O)N[C@@H](CCCCN)C(N)=O)[C@@H](C)O [compound 10] (Ac-LEGREKVRAQI[Aib][Aib]EGMSTWSKRKK-NH2) | 103 | –

Further lines, results first:

Emax [%] | EC50 [nM] | Structure (SMILES)
102 | – | CC[C@H](C)[C@H](NC(=O)[C@H](CCC(N)=O)NC(=O)[C@H](C)NC(=O)[C@H](CCCNC(=N)N)NC(=O)[C@@H](NC(=O)[C@H](CCCCN)NC(=O)[C@H](CCC(=O)O)NC(=O)[C@H](CCCNC(=N)N)NC(=O)CNC(=O)[C@H](CCC(=O)O)NC(=O)C(C)(C)NC(C)=O)C(C)C)C(=O)NC(C)(C)C(=O)NC(C)(C)C(=O)N[C@@H](CCC(=O)O)C(=O)NCC(=O)N[C@@H](CCSC)C(=O)N[C@@H](CO)C(=O)N[C@@H](CCCCN)C(=O)N[C@@H](Cc1c[nH]c2ccccc12)C(=O)N[C@@H](CO)C(=O)N[C@@H](CCCCN)C(=O)N[C@@H](CCCNC(=N)N)C(=O)N[C@@H](CCCCN)C(=O)N[C@@H](CCCCN)C(N)=O [compound 11] (Ac-[Aib]EGREKVRAQI[Aib][Aib]EGMSKWSKRKK-NH2)
99 | – | CC[C@H](C)[C@H](NC(=O)[C@H](CCC(N)=O)NC(=O)[C@H](C)NC(=O)[C@H](CCCNC(=N)N)NC(=O)[C@@H](NC(=O)[C@H](CCCCN)NC(=O)[C@H](CCC(=O)O)NC(=O)[C@H](CCCNC(=N)N)NC(=O)CNC(=O)[C@H](CCC(=O)O)NC(=O)C(C)(C)N)C(C)C)C(=O)NC(C)(C)C(=O)NC(C)(C)C(=O)N[C@@H](CCC(=O)O)C(=O)NCC(=O)N[C@@H](CCSC)C(=O)N[C@@H](CO)C(=O)N[C@@H](CCCCN)C(=O)N[C@@H](Cc1c[nH]c2ccccc12)C(=O)N[C@@H](CO)C(=O)N[C@@H](CCCCN)C(=O)N[C@@H](CCCNC(=N)N)C(=O)N[C@@H](CCCCN)C(=O)N[C@@H](CCCCN)C(N)=O [compound 12] (H-[Aib]EGREKVRAQI[Aib][Aib]EGMSKWSKRKK-NH2)
97 | – | CCCC[C@H](NC(=O)CNC(=O)[C@H](CCC(=O)O)NC(=O)C(C)(C)NC(=O)C(C)(C)NC(=O)[C@@H](NC(=O)[C@H](CCC(N)=O)NC(=O)[C@H](C)NC(=O)[C@H](CCCNC(=N)N)NC(=O)[C@@H](NC(=O)[C@H](CCCCN)NC(=O)[C@H](CCC(=O)O)NC(=O)[C@H](CCCNC(=N)N)NC(=O)CNC(=O)[C@H](CCC(=O)O)NC(=O)[C@H](CC(C)C)NC(C)=O)C(C)C)[C@@H](C)CC)C(=O)N[C@@H](CO)C(=O)N[C@H](C(=O)N[C@@H](Cc1c[nH]c2ccccc12)C(=O)N[C@@H](CO)C(=O)N[C@@H](CCCCN)C(=O)N[C@@H](CCCNC(=N)N)C(=O)N[C@@H](CCCCN)C(=O)N[C@@H](CCCCN)C(N)=O)[C@@H](C)O [compound 13] (Ac-LEGREKVRAQI[Aib][Aib]EG[Nle]STWSKRKK-NH2)
106 | 32.8 | CCCC[C@H](NC(=O)CNC(=O)[C@H](CCC(=O)O)NC(=O)C(C)(C)NC(=O)C(C)(C)NC(=O)[C@@H](NC(=O)[C@H](CCC(N)=O)NC(=O)[C@H](C)NC(=O)[C@H](CCCNC(=N)N)NC(=O)[C@@H](NC(=O)[C@H](CCCCN)NC(=O)[C@H](CCC(=O)O)NC(=O)[C@H](CCCNC(=N)N)NC(=O)CNC(=O)[C@H](CCC(=O)O)NC(=O)[C@H](CC(C)C)NC(C)=O)C(C)C)[C@@H](C)CC)C(=O)N[C@@H](CO)C(=O)N[C@@H](CCCCN)C(=O)N[C@@H](Cc1cccc2ccccc12)C(=O)N[C@@H](CO)C(=O)N[C@@H](CCCCN)C(=O)N[C@@H](CCCNC(=N)N)C(=O)N[C@@H](CCCCN)C(=O)N[C@@H](CCCCN)C(N)=O [compound 14] (Ac-LEGREKVRAQI[Aib][Aib]EG[Nle]SK[1Nal]SKRKK-NH2)
104 | 24.4 | CCCC[C@H](NC(=O)CNC(=O)[C@H](CCC(=O)O)NC(=O)C(C)(C)NC(=O)C(C)(C)NC(=O)[C@@H](NC(=O)[C@H](CCC(N)=O)NC(=O)[C@H](C)NC(=O)[C@H](CCCNC(=N)N)NC(=O)[C@@H](NC(=O)[C@H](CCCCN)NC(=O)[C@H](CCC(=O)O)NC(=O)[C@H](CCCNC(=N)N)NC(=O)CNC(=O)[C@H](CCC(=O)O)NC(=O)[C@H](CC(C)C)NC(C)=O)C(C)C)[C@@H](C)CC)C(=O)N[C@@H](CO)C(=O)N[C@H](C(=O)N[C@@H](Cc1cccc2ccccc12)C(=O)N[C@@H](CO)C(=O)N[C@@H](CCCCN)C(=O)N[C@@H](CCCNC(=N)N)C(=O)N[C@@H](CCCCN)C(=O)N[C@@H](CCCCN)C(N)=O)[C@@H](C)O [compound 15] (Ac-LEGREKVRAQI[Aib][Aib]EG[Nle]ST[1Nal]SKRKK-NH2)
101 | ≤ 5 | CC[C@H](C)[C@H](NC(=O)[C@H](C)NC(=O)[C@H](C)NC(=O)[C@H](CCCNC(=N)N)NC(=O)[C@@H](NC(=O)[C@H](CCCCN)NC(=O)[C@H](CCC(=O)O)NC(=O)[C@H](CCCNC(=N)N)NC(=O)CNC(=O)[C@H](CCC(=O)O)NC(=O)[C@H](CC(C)C)NC(C)=O)C(C)C)C(=O)NC(C)(C)C(=O)NC(C)(C)C(=O)N[C@@H](CCC(=O)O)C(=O)NCC(=O)N[C@@H](CCSC)C(=O)N[C@@H](CO)C(=O)N[C@H](C(=O)N[C@@H](Cc1c[nH]c2ccccc12)C(=O)N[C@@H](CO)C(=O)N[C@@H](CCCCN)C(=O)N[C@@H](CCCNC(=N)N)C(=O)N[C@@H](CCCCN)C(=O)N[C@@H](CCCCN)C(N)=O)[C@@H](C)O [compound 16] (Ac-LEGREKVRAAI[Aib][Aib]EGMSTWSKRKK-NH2)
